# Columns and labels:
# [1] = system: NMNAT2; experiment: NMNAT2-Hibit nano-luciferase activity in transfected U87MG cells, 25 μM, 24 hours; format: cell-based; conditions: NMNAT2-Hibit luc plasmid; for C: Compound efficacy for NMNAT2 activation; increase in NMNAT2 luciferase activity: 24 hours (Table C); for B: compound efficacy (IC50) for NMNAT2 activation; increase in NMNAT2 luciferase activity: 24 hours (Table B)
# Procedure: Selected compounds were tested in vitro. Briefly, U87MG cells were transfected with NMNAT2-Hibit luc plasmid. Cells were treated with a test compound at 25 μM for 24 hours. Cells were then collected and assayed for nano-luciferase activity.
# [2] = system: NMNAT2; experiment: NMNAT2-Hibit nano-luciferase activity in stably transfected U87MG cells, various concentrations, 24 hours; format: cell-based; conditions: U87MG cells stably transfected with NMNAT2-Hibit luc plasmid
# Procedure: Selected compounds were tested in vitro. U87MG cells were stably transfected with NMNAT2-Hibit luc plasmid. Cells were treated with a test compound at various concentrations for 24 hours. Cells were then collected and assayed for nano-luciferase activity.
compound,measurement,setting,value
O=C(CN1C(=O)c2cccc3cccc1c23)NCc1ccco1 [Compound 181104],C: Compound efficacy for NMNAT2 activation; increase in NMNAT2 luciferase activity,[1],+ (“+” <20% increase in NMNAT2 luciferase activity.)
COc1ccc2c(ccn2CCNC(=O)c2ccco2)c1 [Compound 181157],C: Compound efficacy for NMNAT2 activation; increase in NMNAT2 luciferase activity,[1],+ (“+” <20% increase in NMNAT2 luciferase activity.)
O=C(Cn1cc(C(=O)C2CCCCC2)c2ccccc21)NCc1ccco1 [Compound 181107],C: Compound efficacy for NMNAT2 activation; increase in NMNAT2 luciferase activity,[1],+++ (“+++” >100% increase in NMNAT2 luciferase activity.)
CC(=O)c1cn(CC(=O)NCc2ccco2)c2ccccc12 [Compound 181145],C: Compound efficacy for NMNAT2 activation; increase in NMNAT2 luciferase activity,[1],+ (“+” <20% increase in NMNAT2 luciferase activity.)
COc1ccc(CNC(=O)NCc2noc3ccc(C)cc23)cc1 [Compound 181060],B: compound efficacy (IC50) for NMNAT2 activation; increase in NMNAT2 luciferase activity,[1],++ (“++” >20% and <100% increase in NMNAT2 luciferase activity.)
CCc1ccc(NC(=O)NCc2noc3ccccc23)cc1 [Compound 181009],B: compound efficacy (IC50) for NMNAT2 activation; increase in NMNAT2 luciferase activity,[1],+ (“+” <20% increase in NMNAT2 luciferase activity.)
Cc1ccc(C(CC(=O)NCc2ccco2)c2cn(C)c3ccccc23)cc1 (centres unmarked) [Compound 181142],C: Compound efficacy for NMNAT2 activation; increase in NMNAT2 luciferase activity,[1],+ (“+” <20% increase in NMNAT2 luciferase activity.)
Cc1ccc(CCNC(=O)NCc2noc3ccc(C)cc23)cc1 [Compound 181083],B: compound efficacy (IC50) for NMNAT2 activation; increase in NMNAT2 luciferase activity,[1],++ (“++” >20% and <100% increase in NMNAT2 luciferase activity.)
Cc1cc(C)n(CC(=O)NCCC(C)C)c(=O)c1C#N [Compound 181131],C: Compound efficacy for NMNAT2 activation; increase in NMNAT2 luciferase activity,[1],+ (“+” <20% increase in NMNAT2 luciferase activity.)
O=C(Cn1ccc2ccc(Br)cc21)NCCCc1ccco1 [Compound 181153],C: Compound efficacy for NMNAT2 activation; increase in NMNAT2 luciferase activity,[1],++ (“++” >20% and <100% increase in NMNAT2 luciferase activity.)
CCn1c2ccccc2c2cc(NC(=O)NCc3noc4ccc(C)cc34)ccc21 [Compound 181064],B: compound efficacy (IC50) for NMNAT2 activation; increase in NMNAT2 luciferase activity,[1],+ (“+” <20% increase in NMNAT2 luciferase activity.)
Cc1ccc2onc(CNC(=O)NCc3ccccc3)c2c1 [Compound 181092],B: compound efficacy (IC50) for NMNAT2 activation; increase in NMNAT2 luciferase activity,[1],+ (“+” <20% increase in NMNAT2 luciferase activity.)
Cc1ccc(C)c(Cn2c3c(c4ccccc42)CN(C(=O)Nc2cccc(C)c2C)CC3)c1 [BC20255],E: compound efficacy for NMNAT2 activation (concentration giving >25% increase in NMNAT2 luciferase activity),[2],+ (“+” >25% increase in NMNAT2 luciferase activity at >25 μM.)
O=C(CCCc1cn(Cc2ccccc2F)c2ccccc12)NCC1CCCO1 (centres unmarked) [BC20123],E: compound efficacy for NMNAT2 activation (concentration giving >25% increase in NMNAT2 luciferase activity),[2],++ (“++” >25% increase in NMNAT2 luciferase activity at >1 μM ≤25 μM.)
O=C(NCc1ccncc1)C1CCCc2c1c1ccccc1n2Cc1cccc(F)c1 (centres unmarked) [BC20380],E: compound efficacy for NMNAT2 activation (concentration giving >25% increase in NMNAT2 luciferase activity),[2],+ (“+” >25% increase in NMNAT2 luciferase activity at >25 μM.)
O=C(CCCc1cn(Cc2ccccc2F)c2ccccc12)NCc1ccncc1 [BC20133],E: compound efficacy for NMNAT2 activation (concentration giving >25% increase in NMNAT2 luciferase activity),[2],++ (“++” >25% increase in NMNAT2 luciferase activity at >1 μM ≤25 μM.)
Cc1ccccc1Cn1cc(CCCC(=O)NC(C)Cc2ccco2)c2ccccc21 (centres unmarked) [BC20159],E: compound efficacy for NMNAT2 activation (concentration giving >25% increase in NMNAT2 luciferase activity),[2],++ (“++” >25% increase in NMNAT2 luciferase activity at >1 μM ≤25 μM.)
O=C(Cn1c2c(c3ccccc31)CN(C(=O)NCc1ccco1)CC2)NCc1ccco1 [BC20327],E: compound efficacy for NMNAT2 activation (concentration giving >25% increase in NMNAT2 luciferase activity),[2],+ (“+” >25% increase in NMNAT2 luciferase activity at >25 μM.)
COc1cccc(CNC(=O)[C@H]2C[C@@H]2c2c(C)n(Cc3cc(C)ccc3C)c3ccccc23)c1 (racemic) [BC20325],E: compound efficacy for NMNAT2 activation (concentration giving >25% increase in NMNAT2 luciferase activity),[2],+ (“+” >25% increase in NMNAT2 luciferase activity at >25 μM.)
Cc1cccc(Cn2cc(CCCC(=O)N3CCN(C(=O)c4ccco4)CC3)c3ccccc32)c1 [BC20170],E: compound efficacy for NMNAT2 activation (concentration giving >25% increase in NMNAT2 luciferase activity),[2],++ (“++” >25% increase in NMNAT2 luciferase activity at >1 μM ≤25 μM.)
Cc1cccc(Cn2cc(CCCC(=O)Nc3cccc(C)c3C)c3ccccc32)c1 [BC20175],E: compound efficacy for NMNAT2 activation (concentration giving >25% increase in NMNAT2 luciferase activity),[2],++ (“++” >25% increase in NMNAT2 luciferase activity at >1 μM ≤25 μM.)
Cc1ccccc1Cn1c(C)c(C)c2cc(C(=O)NCC3CCCO3)ccc21 (centres unmarked) [BC20201],E: compound efficacy for NMNAT2 activation (concentration giving >25% increase in NMNAT2 luciferase activity),[2],+ (“+” >25% increase in NMNAT2 luciferase activity at >25 μM.)
Cc1ccc(C)c(Cn2c(C(F)F)c(CCC(=O)NC(C)Cc3ccco3)c3ccccc32)c1 (centres unmarked) [BC20401],E: compound efficacy for NMNAT2 activation (concentration giving >25% increase in NMNAT2 luciferase activity),[2],++ (“++” >25% increase in NMNAT2 luciferase activity at >1 μM ≤25 μM.)
O=C1CC(c2cn(Cc3cccc(F)c3)c3ccccc23)CCN1Cc1ccccc1F (centres unmarked) [BC20318],E: compound efficacy for NMNAT2 activation (concentration giving >25% increase in NMNAT2 luciferase activity),[2],+ (“+” >25% increase in NMNAT2 luciferase activity at >25 μM.)
O=C(Cn1cc(C(=O)c2ccc(Cl)cc2)c2ccccc21)NCc1ccncc1 [BC20216],E: compound efficacy for NMNAT2 activation (concentration giving >25% increase in NMNAT2 luciferase activity),[2],++ (“++” >25% increase in NMNAT2 luciferase activity at >1 μM ≤25 μM.)
Cc1ccc(C)c(Cn2c(C(F)F)c(CCC(=O)NCC3CCCO3)c3ccccc32)c1 (centres unmarked) [BC20392],E: compound efficacy for NMNAT2 activation (concentration giving >25% increase in NMNAT2 luciferase activity),[2],+ (“+” >25% increase in NMNAT2 luciferase activity at >25 μM.)
Cc1c(C)n(Cc2cccc(F)c2)c2ccc(C(=O)N3CCN(C(=O)c4ccco4)CC3)cc12 [BC20117],E: compound efficacy for NMNAT2 activation (concentration giving >25% increase in NMNAT2 luciferase activity),[2],++ (“++” >25% increase in NMNAT2 luciferase activity at >1 μM ≤25 μM.)
O=C(NCc1ccccc1F)C1CCc2c(c3ccccc3n2Cc2cccc(F)c2)C1 (centres unmarked) [BC20256],E: compound efficacy for NMNAT2 activation (concentration giving >25% increase in NMNAT2 luciferase activity),[2],+ (“+” >25% increase in NMNAT2 luciferase activity at >25 μM.)
CCCCN(CC)Cc1ccc(CNC(=O)C2CCc3c(c4ccccc4n3Cc3cc(C)ccc3C)C2)o1 (centres unmarked) [BC20219],E: compound efficacy for NMNAT2 activation (concentration giving >25% increase in NMNAT2 luciferase activity),[2],++ (“++” >25% increase in NMNAT2 luciferase activity at >1 μM ≤25 μM.)
O=C(NCC1CCCO1)C1CCCc2c1c1ccccc1n2Cc1cccc(F)c1 (centres unmarked) [BC20370],E: compound efficacy for NMNAT2 activation (concentration giving >25% increase in NMNAT2 luciferase activity),[2],+ (“+” >25% increase in NMNAT2 luciferase activity at >25 μM.)
O=C(CCCc1cn(Cc2ccccc2F)c2ccccc12)NCc1cccc(F)c1 [BC20124],E: compound efficacy for NMNAT2 activation (concentration giving >25% increase in NMNAT2 luciferase activity),[2],++ (“++” >25% increase in NMNAT2 luciferase activity at >1 μM ≤25 μM.)
O=C1CC(c2cn(Cc3cccc(F)c3)c3ccccc23)CCN1 (centres unmarked) [BC20339],E: compound efficacy for NMNAT2 activation (concentration giving >25% increase in NMNAT2 luciferase activity),[2],+ (“+” >25% increase in NMNAT2 luciferase activity at >25 μM.)
CCCCN(CC)Cc1ccc(CNC(=O)c2ccc3c(c2)c(C)c(C)n3Cc2cccc(F)c2)o1 [BC20120],E: compound efficacy for NMNAT2 activation (concentration giving >25% increase in NMNAT2 luciferase activity),[2],+++ (“+++” >25% increase in NMNAT2 luciferase activity at ≤1 μM.)
Cc1ccc(C)c(Cn2c3c(c4ccccc42)CC(C(=O)NCc2ccncc2)CC3)c1 (centres unmarked) [BC20190],E: compound efficacy for NMNAT2 activation (concentration giving >25% increase in NMNAT2 luciferase activity),[2],+ (“+” >25% increase in NMNAT2 luciferase activity at >25 μM.)
Cc1cccc(Cn2cc(CCCC(=O)NCCc3ccccc3)c3ccccc32)c1 [BC20172],E: compound efficacy for NMNAT2 activation (concentration giving >25% increase in NMNAT2 luciferase activity),[2],++ (“++” >25% increase in NMNAT2 luciferase activity at >1 μM ≤25 μM.)
Cc1ccccc1Cn1c(C)c(C)c2cc(C(=O)N3CCN(C(=O)c4ccco4)CC3)ccc21 [BC20206],E: compound efficacy for NMNAT2 activation (concentration giving >25% increase in NMNAT2 luciferase activity),[2],+ (“+” >25% increase in NMNAT2 luciferase activity at >25 μM.)
Cc1ccccc1Cn1c(C)c(C)c2cc(C(=O)NCc3ccco3)ccc21 [BC20199],E: compound efficacy for NMNAT2 activation (concentration giving >25% increase in NMNAT2 luciferase activity),[2],++ (“++” >25% increase in NMNAT2 luciferase activity at >1 μM ≤25 μM.)
Cc1ccc(C)c(Cn2c(C)c([C@H]3C[C@@H]3C(=O)NCCc3ccccc3)c3ccccc32)c1 (racemic) [BC20326],E: compound efficacy for NMNAT2 activation (concentration giving >25% increase in NMNAT2 luciferase activity),[2],++ (“++” >25% increase in NMNAT2 luciferase activity at >1 μM ≤25 μM.)
O=C(Cn1c2c(c3ccccc31)CC(C(=O)NCc1ccco1)CC2)NCCc1ccccc1 (centres unmarked) [BC20291],E: compound efficacy for NMNAT2 activation (concentration giving >25% increase in NMNAT2 luciferase activity),[2],++ (“++” >25% increase in NMNAT2 luciferase activity at >1 μM ≤25 μM.)
Cc1c(C)n(Cc2ccccc2F)c2ccc(C(=O)NCc3ccco3)cc12 [BC20100],E: compound efficacy for NMNAT2 activation (concentration giving >25% increase in NMNAT2 luciferase activity),[2],++ (“++” >25% increase in NMNAT2 luciferase activity at >1 μM ≤25 μM.)
COc1cccc(CNC(=O)CCc2c(C(F)F)n(Cc3cc(C)ccc3C)c3ccccc23)c1 [BC20398],E: compound efficacy for NMNAT2 activation (concentration giving >25% increase in NMNAT2 luciferase activity),[2],++ (“++” >25% increase in NMNAT2 luciferase activity at >1 μM ≤25 μM.)
Cc1ccccc1Cn1c(C)c(C)c2cc(C(=O)NC(C)Cc3ccco3)ccc21 (centres unmarked) [BC20207],E: compound efficacy for NMNAT2 activation (concentration giving >25% increase in NMNAT2 luciferase activity),[2],+ (“+” >25% increase in NMNAT2 luciferase activity at >25 μM.)
Cc1ccc(C)c(Cn2c(C(F)F)c(CCC(=O)NCCc3ccccc3)c3ccccc32)c1 [BC20402],E: compound efficacy for NMNAT2 activation (concentration giving >25% increase in NMNAT2 luciferase activity),[2],++ (“++” >25% increase in NMNAT2 luciferase activity at >1 μM ≤25 μM.)
COc1ccccc1CNC(=O)Cn1c2c(c3ccccc31)CC(C(=O)NCc1ccco1)CC2 (centres unmarked) [BC20289],E: compound efficacy for NMNAT2 activation (concentration giving >25% increase in NMNAT2 luciferase activity),[2],+ (“+” >25% increase in NMNAT2 luciferase activity at >25 μM.)
Cc1ccccc1CNC(=O)c1ccc2c(c1)c(C)c(C)n2Cc1ccccc1F [BC20105],E: compound efficacy for NMNAT2 activation (concentration giving >25% increase in NMNAT2 luciferase activity),[2],++ (“++” >25% increase in NMNAT2 luciferase activity at >1 μM ≤25 μM.)
COc1cccc(CNC(=O)N2CCc3c(c4ccccc4n3Cc3cccc(F)c3)C2)c1 [BC20310],E: compound efficacy for NMNAT2 activation (concentration giving >25% increase in NMNAT2 luciferase activity),[2],+ (“+” >25% increase in NMNAT2 luciferase activity at >25 μM.)
Cc1ccc(C)c(Cn2c(C(F)F)c(CCC(=O)N(CCCN3CCOCC3)Cc3ccco3)c3ccccc32)c1 [BC20399],E: compound efficacy for NMNAT2 activation (concentration giving >25% increase in NMNAT2 luciferase activity),[2],++ (“++” >25% increase in NMNAT2 luciferase activity at >1 μM ≤25 μM.)
